Results on four molecules are retold here after ChEMBL document CHEMBL5385892, “Advances in the development of phosphodiesterase-4 inhibitors” (Eur J Med Chem, 2023).

One experiment concerns the target Phosphodiesterase 3 (Homo sapiens, UniProt Q14432+Q13370). As to the kind of experiment: Inhibition of PDE3 (unknown origin). The format is protein assay.
Experiment [1] has as its target T1, Phosphodiesterase isozyme 4 (Homo sapiens, UniProt Q86V67).
T1 sequence (Q86V67 whole entry): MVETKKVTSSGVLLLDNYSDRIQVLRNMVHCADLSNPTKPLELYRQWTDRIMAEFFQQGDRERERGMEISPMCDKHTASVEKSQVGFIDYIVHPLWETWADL
Kind of experiment: Inhibition of PDE4 (unknown origin).

Turning to `O=C(Cc1c(Cl)c[n+]([O-])cc1Cl)c1ccc(OC(F)F)c2c1OC1(CCS(=O)(=O)CC1)O2` [ORISMILAST], the IC50 stood at 0.4 nM against Phosphodiesterase 3 and 1480 nM in experiment [1].

As to `CNc1nc(-c2cccc(NC(=O)c3ccc(C(=O)OC)cc3)c2)c2cc(OC)c(OC)cc2n1` [LOTAMILAST], the IC50 in experiment [1] is 2.8 nM.

In experiment [1], `COc1ccc(C2=NN(CCCCCc3ccccc3)C(=O)CC2)cc1OC` displayed an IC50 of 0.9 nM.

The molecule `CCOc1cc(C(CS(C)(=O)=O)N2C(=O)c3csc(NC(C)=O)c3C2=O)ccc1OC` (stereo not given) registered an IC50 in experiment [1] of 26 nM.
